Reference: article PMC10065276, “Enhanced therapeutic window for antimicrobial Pept-ins by investigating their structure-activity relationship” (PLOS ONE, 2023)
Residues, ends and D or L forms follow the SMILES beside them.

The compounds below were run on E. coli BL21. Settings: BL21, 17 h.
Method in brief: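 EUCAST broth microdilution in Mueller-Hinton medium; end-exponential culture diluted to 0.005 McF (~1.5x10^6 CFU/mL) before 1:1 mixing with two-fold peptide dilutions (0.75 to 100 μg/mL), triplicates.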

In order of falling “BL21 MIC” value:
1. CC(C)C[C@H](NC(=O)CNC(=O)[C@H](CCCNC(=N)N)NC(=O)[C@@H]1CCCN1C(=O)[C@H](CCCNC(=N)N)NC(=O)[C@H](CCCNC(=N)N)NC(=O)[C@@H](NC(=O)[C@H](CC(C)C)NC(=O)[C@H](C)NC(=O)[C@H](C)NC(=O)CNC(=O)[C@H](CC(C)C)NC(=O)CNC(=O)[C@@H](N)CCCNC(=N)N)C(C)C)C(=O)NCC(=O)N[C@@H](CC(C)C)C(=O)N[C@@H](C)C(=O)N[C@@H](CC(C)C)C(=O)N[C@H](C(=O)N[C@@H](CCCNC(=N)N)C(=O)N[C@@H](CCCNC(=N)N)C(=O)O)C(C)C [Peptide P2_L5A] (H-RGLGAALVRRPRGLGLALVRR-OH)  50.00 µg/mL
2. CC(C)C[C@H](NC(=O)CNC(=O)[C@H](CCCNC(=N)N)NC(=O)[C@@H]1CCCN1C(=O)[C@H](CCCNC(=N)N)NC(=O)[C@H](CCCNC(=N)N)NC(=O)[C@@H](NC(=O)[C@H](C)NC(=O)[C@H](C)NC(=O)[C@H](CC(C)C)NC(=O)CNC(=O)[C@H](CC(C)C)NC(=O)CNC(=O)[C@@H](N)CCCNC(=N)N)C(C)C)C(=O)NCC(=O)N[C@@H](CC(C)C)C(=O)N[C@@H](C)C(=O)N[C@@H](CC(C)C)C(=O)N[C@H](C(=O)N[C@@H](CCCNC(=N)N)C(=O)N[C@@H](CCCNC(=N)N)C(=O)O)C(C)C [Peptide P2_L7A] (H-RGLGLAAVRRPRGLGLALVRR-OH)  50.00 µg/mL
3. CC(C)C[C@H](NC(=O)CNC(=O)[C@H](CCCNC(=N)N)NC(=O)[C@@H]1CCCN1C(=O)[C@H](CCCNC(=N)N)NC(=O)[C@H](CCCNC(=N)N)NC(=O)[C@@H](NC(=O)[C@H](CC(C)C)NC(=O)[C@H](C)NC(=O)[C@H](CC(C)C)NC(=O)CNC(=O)[C@H](CC(C)C)NC(=O)CNC(=O)[C@@H](N)CCCNC(=N)N)C(C)C)C(=O)NCC(=O)N[C@@H](C)C(=O)N[C@@H](C)C(=O)N[C@@H](CC(C)C)C(=O)N[C@H](C(=O)N[C@@H](CCCNC(=N)N)C(=O)N[C@@H](CCCNC(=N)N)C(=O)O)C(C)C [Peptide P2_L16A] (H-RGLGLALVRRPRGLGAALVRR-OH)  50.00 µg/mL
4. CC(C)C[C@H](NC(=O)CNC(=O)[C@H](CCCNC(=N)N)NC(=O)[C@@H]1CCCN1C(=O)[C@H](CCCNC(=N)N)NC(=O)[C@H](CCCNC(=N)N)NC(=O)[C@@H](NC(=O)[C@H](CC(C)C)NC(=O)[C@H](C)NC(=O)[C@H](CC(C)C)NC(=O)CNC(=O)[C@H](CC(C)C)NC(=O)CNC(=O)[C@@H](N)CCCNC(=N)N)C(C)C)C(=O)NCC(=O)N[C@@H](CC(C)C)C(=O)N[C@@H](C)C(=O)N[C@@H](C)C(=O)N[C@H](C(=O)N[C@@H](CCCNC(=N)N)C(=O)N[C@@H](CCCNC(=N)N)C(=O)O)C(C)C [Peptide P2_L18A] (H-RGLGLALVRRPRGLGLAAVRR-OH)  50.00 µg/mL
5. CC(C)C[C@H](NC(=O)CNC(=O)[C@@H](N)CCCNC(=N)N)C(=O)NCC(=O)N[C@@H](CC(C)C)C(=O)N[C@@H](C)C(=O)N[C@@H](CC(C)C)C(=O)N[C@H](C(=O)N[C@@H](CCCNC(=N)N)C(=O)N[C@@H](CCCNC(=N)N)C(=O)N1CCC[C@H]1C(=O)N[C@@H](CCCNC(=N)N)C(=O)NCC(=O)N[C@@H](C)C(=O)NCC(=O)N[C@@H](CC(C)C)C(=O)N[C@@H](C)C(=O)N[C@@H](CC(C)C)C(=O)N[C@H](C(=O)N[C@@H](CCCNC(=N)N)C(=O)N[C@@H](CCCNC(=N)N)C(=O)O)C(C)C)C(C)C [Peptide P2_L14A] (H-RGLGLALVRRPRGAGLALVRR-OH)  25.00 µg/mL
6. CC(C)C[C@H](NC(=O)CNC(=O)[C@H](CCCNC(=N)N)NC(=O)[C@@H]1CCCN1C(=O)[C@H](CCCNC(=N)N)NC(=O)[C@H](CCCNC(=N)N)NC(=O)[C@H](C)NC(=O)[C@H](CC(C)C)NC(=O)[C@H](C)NC(=O)[C@H](CC(C)C)NC(=O)CNC(=O)[C@H](CC(C)C)NC(=O)CNC(=O)[C@@H](N)CCCNC(=N)N)C(=O)NCC(=O)N[C@@H](CC(C)C)C(=O)N[C@@H](C)C(=O)N[C@@H](CC(C)C)C(=O)N[C@H](C(=O)N[C@@H](CCCNC(=N)N)C(=O)N[C@@H](CCCNC(=N)N)C(=O)O)C(C)C [Peptide P2_V8A] (H-RGLGLALARRPRGLGLALVRR-OH)  25.00 µg/mL
7. CC(C)C[C@H](NC(=O)CNC(=O)[C@H](CCCNC(=N)N)NC(=O)[C@@H]1CCCN1C(=O)[C@H](CCCNC(=N)N)NC(=O)[C@H](CCCNC(=N)N)NC(=O)[C@@H](NC(=O)[C@H](CC(C)C)NC(=O)[C@H](C)NC(=O)[C@H](CC(C)C)NC(=O)CNC(=O)[C@H](CC(C)C)NC(=O)CNC(=O)[C@@H](N)CCCNC(=N)N)C(C)C)C(=O)NCC(=O)N[C@@H](CC(C)C)C(=O)N[C@@H](C)C(=O)N[C@@H](CC(C)C)C(=O)N[C@@H](C)C(=O)N[C@@H](CCCNC(=N)N)C(=O)N[C@@H](CCCNC(=N)N)C(=O)O [Peptide P2_V19A] (H-RGLGLALVRRPRGLGLALARR-OH)  25.00 µg/mL
8. CC(C)C[C@H](NC(=O)CNC(=O)[C@H](CCCNC(=N)N)NC(=O)[C@@H]1CCCN1C(=O)[C@H](CCCNC(=N)N)NC(=O)[C@H](C)NC(=O)[C@@H](NC(=O)[C@H](CC(C)C)NC(=O)[C@H](C)NC(=O)[C@H](CC(C)C)NC(=O)CNC(=O)[C@H](CC(C)C)NC(=O)CNC(=O)[C@@H](N)CCCNC(=N)N)C(C)C)C(=O)NCC(=O)N[C@@H](CC(C)C)C(=O)N[C@@H](C)C(=O)N[C@@H](CC(C)C)C(=O)N[C@H](C(=O)N[C@@H](CCCNC(=N)N)C(=O)N[C@@H](CCCNC(=N)N)C(=O)O)C(C)C [Peptide P2_R9A] (H-RGLGLALVARPRGLGLALVRR-OH)  12.50 µg/mL
9. CC[C@H](C)[C@H](NC(=O)CNC(=O)[C@H](CC(C)C)NC(=O)[C@H](CCCNC(=N)N)NC(=O)[C@@H]1CCCN1C(=O)[C@H](CCCNC(=N)N)NC(=O)[C@H](CCCNC(=N)N)NC(=O)[C@H](CC(C)C)NC(=O)[C@H](C)NC(=O)[C@@H](NC(=O)[C@H](C)NC(=O)[C@H](C)NC(=O)CNC(=O)[C@H](CC(C)C)NC(=O)[C@@H](N)CCCNC(=N)N)C(C)C)C(=O)N[C@@H](C)C(=O)N[C@H](C(=O)N[C@@H](C)C(=O)N[C@@H](CC(C)C)C(=O)N[C@@H](CCCNC(=N)N)C(=O)N[C@@H](CCCNC(=N)N)C(=O)O)C(C)C [Peptide P33-I4A] (H-RLGAAVALRRPRLGIAVALRR-OH)  12.50 µg/mL
10. CC(C)C[C@H](NC(=O)CNC(=O)[C@H](CCCNC(=N)N)NC(=O)[C@@H]1CCCN1C(=O)[C@H](CCCNC(=N)N)NC(=O)[C@H](CCCNC(=N)N)NC(=O)[C@@H](NC(=O)[C@H](CC(C)C)NC(=O)[C@H](C)NC(=O)[C@H](CC(C)C)NC(=O)CNC(=O)[C@H](CC(C)C)NC(=O)CNC(=O)[C@@H](N)CCCNC(=N)N)C(C)C)C(=O)NCC(=O)N[C@@H](CC(C)C)C(=O)N[C@@H](C)C(=O)N[C@@H](CC(C)C)C(=O)N[C@H](C(=O)N[C@@H](C)C(=O)N[C@@H](CCCNC(=N)N)C(=O)O)C(C)C [Peptide P2_R20A] (H-RGLGLALVRRPRGLGLALVAR-OH)  6.25 µg/mL
11. CC[C@H](C)[C@H](NC(=O)CNC(=O)[C@H](CC(C)C)NC(=O)[C@@H](N)CCCNC(=N)N)C(=O)N[C@@H](C)C(=O)N[C@H](C(=O)N[C@@H](C)C(=O)N[C@@H](C)C(=O)N[C@@H](CCCNC(=N)N)C(=O)N[C@@H](CCCNC(=N)N)C(=O)N1CCC[C@H]1C(=O)N[C@@H](CCCNC(=N)N)C(=O)N[C@@H](CC(C)C)C(=O)NCC(=O)N[C@H](C(=O)N[C@@H](C)C(=O)N[C@H](C(=O)N[C@@H](C)C(=O)N[C@@H](CC(C)C)C(=O)N[C@@H](CCCNC(=N)N)C(=O)N[C@@H](CCCNC(=N)N)C(=O)O)C(C)C)[C@@H](C)CC)C(C)C [Peptide P33-8LA] (H-RLGIAVAARRPRLGIAVALRR-OH)  6.25 µg/mL
12. CC[C@H](C)[C@H](NC(=O)CNC(=O)[C@H](CC(C)C)NC(=O)[C@H](CCCNC(=N)N)NC(=O)[C@@H]1CCCN1C(=O)[C@H](CCCNC(=N)N)NC(=O)[C@H](CCCNC(=N)N)NC(=O)[C@H](CC(C)C)NC(=O)[C@H](C)NC(=O)[C@@H](NC(=O)[C@H](C)NC(=O)[C@@H](NC(=O)[C@H](C)NC(=O)[C@H](CC(C)C)NC(=O)[C@@H](N)CCCNC(=N)N)[C@@H](C)CC)C(C)C)C(=O)N[C@@H](C)C(=O)N[C@H](C(=O)N[C@@H](C)C(=O)N[C@@H](CC(C)C)C(=O)N[C@@H](CCCNC(=N)N)C(=O)N[C@@H](CCCNC(=N)N)C(=O)O)C(C)C [Peptide P33-G3A] (H-RLAIAVALRRPRLGIAVALRR-OH)  6.25 µg/mL
13. CC[C@H](C)[C@H](NC(=O)CNC(=O)[C@H](CC(C)C)NC(=O)[C@@H](N)CCCNC(=N)N)C(=O)N[C@@H](C)C(=O)N[C@H](C(=O)N[C@@H](C)C(=O)N[C@@H](CC(C)C)C(=O)N[C@@H](CCCNC(=N)N)C(=O)N[C@@H](CCCNC(=N)N)C(=O)N1CCC[C@H]1C(=O)N[C@@H](CCCNC(=N)N)C(=O)N[C@@H](CC(C)C)C(=O)N[C@@H](C)C(=O)N[C@H](C(=O)N[C@@H](C)C(=O)N[C@H](C(=O)N[C@@H](C)C(=O)N[C@@H](CC(C)C)C(=O)N[C@@H](CCCNC(=N)N)C(=O)N[C@@H](CCCNC(=N)N)C(=O)O)C(C)C)[C@@H](C)CC)C(C)C [Peptide P33-G14A] (H-RLGIAVALRRPRLAIAVALRR-OH)  6.25 µg/mL

With `CC(C)C[C@H](NC(=O)CNC(=O)[C@H](CCCNC(=N)N)NC(=O)[C@@H]1CSSC[C@H](NC(=O)[C@@H](NC(=O)[C@H](CC(C)C)NC(=O)[C@H](C)NC(=O)[C@H](CC(C)C)NC(=O)CNC(=O)[C@H](CC(C)C)NC(=O)CNC(=O)[C@@H](N)CCCNC(=N)N)C(C)C)C(=O)N[C@@H](CCCNC(=N)N)C(=O)N[C@@H](CCCNC(=N)N)C(=O)N2CCC[C@H]2C(=O)N1)C(=O)NCC(=O)N[C@@H](CC(C)C)C(=O)N[C@@H](C)C(=O)N[C@@H](CC(C)C)C(=O)N[C@H](C(=O)N[C@@H](CCCNC(=N)N)C(=O)N[C@@H](CCCNC(=N)N)C(=O)O)C(C)C` [Peptide P2_var9] the “BL21 MIC, SS bond” value was 6.25 µg/mL.

In the case of `CC(C)C[C@H](NC(=O)CNC(=O)[C@H](CCCNC(=N)N)NC(=O)[C@@H]1CSSC[C@H](NC(=O)[C@@H](NC(=O)[C@H](CC(C)C)NC(=O)[C@H](C)NC(=O)[C@H](CC(C)C)NC(=O)CNC(=O)[C@H](CC(C)C)NC(=O)CNC(=O)[C@@H](N)CCCNC(=N)N)C(C)C)C(=O)N[C@@H](CCCNC(=N)N)C(=O)N[C@@H](CCCNC(=N)N)C(=O)N2CCC[C@H]2C(=O)N1)C(=O)NCC(=O)N[C@@H](CC(C)C)C(=O)N[C@@H](C)C(=O)N[C@@H](CC(C)C)C(=O)N[C@H](C(=O)N[C@@H](CCCNC(=N)N)C(=O)N[C@@H](CCCNC(=N)N)C(=O)O)C(C)C` [Peptide P2_var9], the “BL21 MIC, no SS bond” value was 6.25 µg/mL.

Same assay, conditions: S1 Table, gatekeeper modification; broth microdilution, MH medium, 37°C, 17 h

With `CC(C)C[C@H](NC(=O)CNC(=O)[C@H](CC(N)=O)NC(=O)[C@@H]1CCCN1C(=O)[C@H](CC(N)=O)NC(=O)[C@H](CC(N)=O)NC(=O)[C@@H](NC(=O)[C@H](CC(C)C)NC(=O)[C@H](C)NC(=O)[C@H](CC(C)C)NC(=O)CNC(=O)[C@H](CC(C)C)NC(=O)CNC(=O)[C@@H](N)CC(N)=O)C(C)C)C(=O)NCC(=O)N[C@@H](CC(C)C)C(=O)N[C@@H](C)C(=O)N[C@@H](CC(C)C)C(=O)N[C@H](C(=O)N[C@@H](CC(N)=O)C(=O)N[C@@H](CC(N)=O)C(=O)O)C(C)C` [Peptide P2_N] (H-NGLGLALVNNPNGLGLALVNN-OH) the “BL21 MIC” value was >100.00 µg/mL.
